Measurements as given in patent US10662156B2, “Guanidine derivative and medical use thereof” (Toray Industries, Inc., priority 2016, dated 2020).
Structures can show the parent of a compound that is named as a salt.

Target: recombinant GST fusion MALT1 (human MALT1) (Homo sapiens (Human), UniProt Q9UDY8)
Experiment: Evaluation of inhibition of protease activity of MALT1 (cleavage of fluorescent peptide substrate Ac-LRSR-AMC)
Format: biochemical
Details: substrate Ac-LRSR-AMC 20 μmol/L, 30° C. for 80 minutes
Protocol: The guanidine derivative (I) or the pharmacologically acceptable salt thereof was evaluated for its inhibition of the protease activity of MALT1 in an in vitro experimental system in accordance with the method described in the literature (Cancer Cell, 2012, Vol. 22, p. 825-837). Specifically, the evaluation was conducted by measuring the degree of reduction in fluorescence value by the compound relative to elevation in fluorescence value resulting from the cleavage of a fluorescently labeled artificial peptide substrate by recombinant MALT1.
A) Preparation of Recombinant GST Fusion MALT1:
Full-length cDNA of human MALT1 gene (GenBank accession No: AB026118.1) amplified by PCR was inserted in flame to a SalI site located downstream of GST gene in a pGEX6P3 vector (GE Healthcare Japan Corp.) to prepare a vector (hereinafter, referred to as a pGEX6P3-MALT1 vector). Subsequently, E. coli for protein expression (BL21-RIL-codon plus-DE3, Agilent Technologies, Inc.) was transformed with the pGEX6P3-MALT1 vector and then analyzed by ampicillin resistance screening and colony PCR to obtain an E. coli strain expressing recombinant GST fusion MALT1. Protein expression was induced with isopropyl-(3-thiogalactopyranoside. After the expression induction, E. coli precipitates were recovered by centrifugation from the E. coli culture solution, and the E. coli precipitates were homogenized and then centrifuged to obtain a supernatant. The supernatant was purified using GSTrap FF column (GE Healthcare Japan Corp.) to obtain recombinant GST fusion MALT1.
B) Evaluation of Inhibition of Protease Activity of MALT1:
To 89 μL of an enzyme solution ([…] GST fusion MALT1, 50 mmol/L MES, 150 mmol/L NaCl, 10% sucrose, 0.1% CHAPS, 10 mmol/L dithiothreitol, and 1 mol/L tri-ammonium citrate) per specimen, 1 μL of a test compound (DMSO-diluted solution) of each concentration was added to prepare a mixed solution. The mixed solution was incubated at room temperature for 30 minutes, followed by the measurement of the fluorescence value of the mixed solution (fluorescence value of the first measurement) (Ex: 380 nm, Em: 460 nm; Envision (Perkin Elmer Inc.)). Next, 10 μL of 200 μmol/L substrate (Ac-LRSR-AMC, SM Biochemicals LLC) was added (final concentration: 20 μmol/L) to the mixed solution, and the mixture was reacted by incubation at 30° C. for 80 minutes, followed by the measurement of the fluorescence value of the reaction solution (fluorescence value of the second measurement) (Ex: 380 nm, Em: 460 nm; Envision (Perkin Elmer Inc.)). A “well nonsupplemented with the test compound (only DMSO was added), nonsupplemented with the enzyme and supplemented with the substrate”, and a “well nonsupplemented with the test compound (only DMSO was added), supplemented with the enzyme and supplemented with the substrate” were established.
The fluorescence value of the first measurement was defined as “F1”, and the fluorescence value of the second measurement was defined as “F2”. F2−F1 of the “well nonsupplemented with the test compound (only DMSO was added), nonsupplemented with the enzyme and supplemented with the substrate” was defined as “Fback”, F2−F1 of the “well nonsupplemented with the test compound (only DMSO was added), supplemented with the enzyme and supplemented with the substrate” was defined as “Fpositive”, and F2−F1 of the “well supplemented with the test compound, supplemented with the enzyme and supplemented with the substrate” was defined as “Fsample”. The rate of inhibition (%) of the protease activity of MALT1 by the test compound was calculated according to the following expression. Rate of inhibition (%)=100×(1−(Fsample−Fback)/(Fpositive−Fback))

Chain of recombinant GST fusion MALT1 (human MALT1) (Q9UDY8 whole entry, the tested form may be a part): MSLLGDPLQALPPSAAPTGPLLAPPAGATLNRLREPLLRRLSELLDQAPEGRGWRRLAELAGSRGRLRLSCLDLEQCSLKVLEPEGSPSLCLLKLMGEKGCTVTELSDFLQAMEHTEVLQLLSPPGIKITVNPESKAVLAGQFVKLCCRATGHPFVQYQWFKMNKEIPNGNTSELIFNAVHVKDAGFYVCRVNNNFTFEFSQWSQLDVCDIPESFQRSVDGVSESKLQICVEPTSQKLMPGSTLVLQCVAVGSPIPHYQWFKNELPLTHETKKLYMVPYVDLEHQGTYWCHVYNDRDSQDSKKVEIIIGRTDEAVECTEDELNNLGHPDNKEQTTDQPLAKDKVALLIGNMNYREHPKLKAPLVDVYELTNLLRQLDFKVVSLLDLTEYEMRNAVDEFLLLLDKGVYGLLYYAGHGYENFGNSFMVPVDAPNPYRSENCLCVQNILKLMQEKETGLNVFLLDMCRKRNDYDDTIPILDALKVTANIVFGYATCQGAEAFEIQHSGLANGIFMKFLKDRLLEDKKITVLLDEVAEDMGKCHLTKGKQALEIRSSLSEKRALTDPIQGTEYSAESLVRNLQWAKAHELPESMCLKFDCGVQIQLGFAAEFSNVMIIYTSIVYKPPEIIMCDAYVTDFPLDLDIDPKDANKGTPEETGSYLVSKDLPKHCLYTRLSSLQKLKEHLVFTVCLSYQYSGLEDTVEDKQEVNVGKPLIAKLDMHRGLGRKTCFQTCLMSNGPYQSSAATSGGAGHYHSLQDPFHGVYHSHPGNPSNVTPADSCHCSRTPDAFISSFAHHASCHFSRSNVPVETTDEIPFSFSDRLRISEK

IC50 [nM]	Structure (SMILES)
72	N/C(=N\S(=O)(=O)c1ccccc1)NCc1ncc(-c2ccc(Cl)cc2)c(-c2ccc(Cl)cc2)n1 [Compound of Example 87, N-(amino(((4,5-bis(4-chlorophenyl)pyrimidin-2-yl)methyl)amino)methylene)benzenesulfonamide]
338	Cc1ccc(-c2ncc(CN/C(N)=N/S(=O)(=O)c3ccccc3)cc2-c2ccc(Cl)cc2)cc1F [Compound of Example 12, N-(amino(((5-(4-chlorophenyl)-6-(3-fluoro-4-methylphenyl)pyridin-3-yl)methyl)amino)methylene)benzenesulfonamide]
368	N/C(=N\S(=O)(=O)c1ccccc1)NCc1cc(-c2ccc(Cl)cc2)c(-c2ccc(Cl)cc2)nc1F [Compound of Example 89, N-(amino(((5,6-bis(4-chlorophenyl)-2-fluoropyridin-3-yl)methyl)amino)methylene)benzenesulfonamide]
314	N/C(=N\C(=O)c1cccs1)NCc1cnc(-c2ccc(Cl)cc2)c(-c2ccc(Cl)cc2)c1 [Compound of Example 35, N-(amino(((5,6-bis(4-chlorophenyl)pyridin-3-yl)methyl)amino)methylene)thiophene-2-carboxamide Hydrochloride]
517	N/C(=N\S(=O)(=O)C1CCCC1)NCc1cnc(-c2ccc(Cl)cc2)c(-c2ccc(Cl)cc2)c1 [Compound of Example 57, N-(amino(((5,6-bis(4-chlorophenyl)pyridin-3-yl)methyl)amino)methylene)cyclopentanesulfonamide]
532	N/C(=N\S(=O)(=O)c1cccc(F)c1)NCc1cnc(-c2ccc(Cl)cc2)c(-c2ccc(Cl)cc2)c1 [Compound of Example 27, N-(amino(((5,6-bis(4-chlorophenyl)pyridin-3-yl)methyl)amino)methylene)-3-fluorobenzenesulfonamide]
1880	CN(C)C(=O)/N=C(\N)NCc1cnc(-c2ccc(Cl)cc2)c(-c2ccc(Cl)cc2)c1 [Compound of Example 79, 3-(amino(((5,6-bis(4-chlorophenyl)pyridin-3-yl)methyl)amino)methylene)-1,1-dimethylurea]
1720	CC(C)Oc1ccc(-c2cc(CN/C(N)=N/S(=O)(=O)c3ccccc3)cnc2-c2ccc(Cl)cc2)cc1 [Compound of Example 23, N-(amino(((6-(4-chlorophenyl)-5-(4-isopropoxyphenyl)pyridin-3-yl)methyl)amino)methylene)benzenesulfonamide]
880	CC(C)(C(=O)/N=C(\N)NCc1cnc(-c2ccc(Cl)cc2)c(-c2ccc(Cl)cc2)c1)c1ccccc1 [Compound of Example 86, N-(amino(((5,6-bis(4-chlorophenyl)pyridin-3-yl)methyl)amino)methylene)-2-methyl-2-phenylpropanamide]
237	N/C(=N\S(=O)(=O)c1ccccc1)NCc1cnc(-c2ccc(Cl)cc2F)c(-c2ccc(Cl)cc2)c1 [Compound of Example 36, N-(amino(((6-(4-chloro-2-fluorophenyl)-5-(4-chlorophenyl)pyridin-3-yl)methyl)amino)methylene)benzenesulfonamide]
922	N/C(=N\S(=O)(=O)c1ccccc1)NCc1cnc(-c2ccc(Cl)cc2O)c(-c2ccc(Cl)cc2)c1 [Compound of Example 97, N-(amino(((6-(4-chloro-2-hydroxyphenyl)-5-(4-chlorophenyl)pyridin-3-yl)methyl)amino)methylene)benzenesulfonamide]
1130	N/C(=N\C(=O)c1ccc(F)cc1)NCc1cnc(-c2ccc(Cl)cc2)c(-c2ccc(Cl)cc2)c1 [Compound of Example 66, N-(amino(((5,6-bis(4-chlorophenyl)pyridin-3-yl)methyl)amino)methylene)-4-fluorobenzamide]
746	N/C(=N\S(=O)(=O)Cc1ccccc1)NCc1cnc(-c2ccc(Cl)cc2)c(-c2ccc(Cl)cc2)c1 [Compound of Example 59, N-(amino(((5,6-bis(4-chlorophenyl)pyridin-3-yl)methyl)amino)methylene)-1-phenylmethanesulfonamide]
237	Cc1ccc(-c2ncc(CN/C(N)=N/S(=O)(=O)c3ccccc3)cc2-c2ccc(Cl)cc2)c(F)c1 [Compound of Example 13, N-(amino(((5-(4-chlorophenyl)-6-(2-fluoro-4-methylphenyl)pyridin-3-yl)methyl)amino)methylene)benzenesulfonamide]
390	N#Cc1ccc(S(=O)(=O)/N=C(\N)NCc2cnc(-c3ccc(Cl)cc3)c(-c3ccc(Cl)cc3)c2)cn1 [Compound of Example 52, N-(amino(((5,6-bis(4-chlorophenyl)pyridin-3-yl)methyl)amino)methylene)-6-cyanopyridine-3-sulfonamide]
539	CC(N/C(N)=N/S(=O)(=O)c1ccccc1)c1cnc(-c2ccc(Cl)cc2)c(-c2ccc(Cl)cc2)c1 (stereo not shown) [Compound of Example 46, N-(amino((1-(5,6-bis(4-chlorophenyl)pyridin-3-yl)ethyl)amino)methylene)benzenesulfonamide]
373	N/C(=N\C(=O)C1CCC(F)(F)CC1)NCc1cnc(-c2ccc(Cl)cc2)c(-c2ccc(Cl)cc2)c1 [Compound of Example 85, N-(amino(((5,6-bis(4-chlorophenyl)pyridin-3-yl)methyl)amino)methylene)-4,4-difluorocyclohexanecarboxamide]
408	N/C(=N\C(=O)c1nccs1)NCc1cnc(-c2ccc(Cl)cc2)c(-c2ccc(Cl)cc2)c1 [Compound of Example 61, N-(amino(((5,6-bis(4-chlorophenyl)pyridin-3-yl)methyl)amino)methylene)thiazole-2-carboxamide]
221	NC(=NS(=O)(=O)c1ccccc1)NCc1ccc(-c2ccc(Cl)cc2)c(-c2ccc(Cl)cc2)n1 [Compound of Example 45, N-(amino(((5,6-bis(4-chlorophenyl)pyridin-2-yl)methyl)amino)methylene)benzenesulfonamide Hydrochloride]
942	N/C(=N\C(=O)c1cscn1)NCc1cnc(-c2ccc(Cl)cc2)c(-c2ccc(Cl)cc2)c1 [Compound of Example 83, N-(amino(((5,6-bis(4-chlorophenyl)pyridin-3-yl)methyl)amino)methylene)thiazole-4-carboxamide]
429	N/C(=N\S(=O)(=O)C1CCCCC1)NCc1cnc(-c2ccc(Cl)cc2)c(-c2ccc(Cl)cc2)c1 [Compound of Example 56, N-(amino(((5,6-bis(4-chlorophenyl)pyridin-3-yl)methyl)amino)methylene)cyclohexanesulfonamide]
300	N/C(=N\C(=O)C1CCCCC1)NCc1cnc(-c2ccc(Cl)cc2)c(-c2ccc(Cl)cc2)c1 [Compound of Example 73, N-(amino(((5,6-bis(4-chlorophenyl)pyridin-3-yl)methyl)amino)methylene)cyclohexanecarboxamide Hydrochloride]
2010	Cn1cc(S(=O)(=O)/N=C(\N)NCc2cnc(-c3ccc(Cl)cc3)c(-c3ccc(Cl)cc3)c2)cn1 [Compound of Example 53, N-(amino(((5,6-bis(4-chlorophenyl)pyridin-3-yl)methyl)amino)methylene)-1-methyl-1H-pyrazole-4-sulfonamide]
640	COCC(=O)/N=C(\N)NCc1cnc(-c2ccc(Cl)cc2)c(-c2ccc(Cl)cc2)c1 [Compound of Example 63, N-(amino(((5,6-bis(4-chlorophenyl)pyridin-3-yl)methyl)amino)methylene)-2-methoxyacetamide]
705	N/C(=N\S(=O)(=O)c1ccccc1)NCc1cnc(-c2ccccc2)c(-c2ccc(Cl)cc2)c1 [Compound of Example 3, N-(amino(((5-(4-chlorophenyl)-6-phenylpyridin-3-yl)methyl)amino)methylene)benzenesulfonamide]
